Test results taken from publication PMC3653958, “Identification of Functionally Distinct Na-HCO3 Co-Transporters in Colon” (PLoS ONE, 2013).

Target: T1, NBCe1B/C (electrogenic Na-HCO3 cotransporter) (Rattus norvegicus, UniProt Q9JI66)
T1 construct: gene Slc4a4; native transporter in basolateral membrane vesicles of rat proximal colon (amiloride-insensitive component)
T1 sequence (Q9JI66 1-1079): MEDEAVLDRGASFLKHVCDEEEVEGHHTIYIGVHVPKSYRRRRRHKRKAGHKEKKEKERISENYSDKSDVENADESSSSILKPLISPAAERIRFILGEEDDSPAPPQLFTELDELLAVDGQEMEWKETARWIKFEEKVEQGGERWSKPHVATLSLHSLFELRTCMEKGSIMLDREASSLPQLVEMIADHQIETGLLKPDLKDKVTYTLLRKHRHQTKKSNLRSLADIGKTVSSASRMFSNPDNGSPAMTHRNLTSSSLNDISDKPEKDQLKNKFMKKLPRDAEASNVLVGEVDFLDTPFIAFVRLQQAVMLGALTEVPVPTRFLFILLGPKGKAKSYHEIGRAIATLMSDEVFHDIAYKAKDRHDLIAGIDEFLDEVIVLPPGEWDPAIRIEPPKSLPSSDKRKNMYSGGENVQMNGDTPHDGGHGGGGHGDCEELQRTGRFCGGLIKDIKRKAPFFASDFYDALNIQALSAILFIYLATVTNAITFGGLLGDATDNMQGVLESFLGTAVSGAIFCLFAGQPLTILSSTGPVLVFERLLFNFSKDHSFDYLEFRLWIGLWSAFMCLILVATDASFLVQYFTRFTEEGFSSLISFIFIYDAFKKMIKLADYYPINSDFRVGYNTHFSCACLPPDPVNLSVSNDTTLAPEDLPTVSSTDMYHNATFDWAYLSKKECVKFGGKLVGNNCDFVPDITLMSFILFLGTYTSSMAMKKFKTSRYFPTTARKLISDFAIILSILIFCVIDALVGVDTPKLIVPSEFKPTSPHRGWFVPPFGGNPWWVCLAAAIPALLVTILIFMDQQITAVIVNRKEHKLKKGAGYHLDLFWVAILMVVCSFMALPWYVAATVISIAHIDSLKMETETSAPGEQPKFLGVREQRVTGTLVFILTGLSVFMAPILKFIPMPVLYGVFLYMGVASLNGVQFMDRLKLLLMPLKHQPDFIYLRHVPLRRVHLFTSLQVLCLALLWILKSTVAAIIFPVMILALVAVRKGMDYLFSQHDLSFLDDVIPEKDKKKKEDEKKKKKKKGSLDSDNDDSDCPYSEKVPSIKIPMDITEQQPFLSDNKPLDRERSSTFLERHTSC
Test: inhibition of proton/HCO3 gradient-driven […] uptake in native membrane vesicles
Assay type: biochemical

Ki: 8.9 ± 1.2 µM
SMILES: O=S(=O)(O)c1cc(N=C=S)ccc1/C=C/c1ccc(N=C=S)cc1S(=O)(=O)O [DIDS]
